Patent publication US10660334B2, “Fused bicyclic heterocycle derivatives as pesticides” (Bayer CropScience Aktiengesellschaft, priority 2016, dated 2020)

Legend:
[1] = log P by HPLC on reversed-phase column (EEC Directive 79/831 Annex V.A8), acidic range; format: physicochemical; conditions: reversed-phase C18 HPLC column; HPLC reversed-phase C18, 55° C., pH 2.7, 0.1% aqueous formic acid and acetonitrile; read-out: log P (HCOOH)
Protocol: The log P values are measured according to EEC Directive 79/831 Annex V.A8 by HPLC (high-performance liquid chromatography) on a reversed-phase column (C18). Temperature: 55° C. The LC-MS determination in the acidic range is effected at pH 2.7 with 0.1% aqueous formic acid and acetonitrile (containing 0.1% formic acid) as eluents; linear gradient from 10% acetonitrile to 95% acetonitrile. Called log P (HCOOH) in the table.

Ctenocephalides felis [2] = test: Ctenocephalides felis in vitro contact test with adult cat fleas; format: in vivo; conditions: application rate 5 μg/cm^2 (=500 g/ha), after 48 h
Protocol: Ctenocephalides felis—In Vitro Contact Tests with Adult Cat Fleas For the coating of the test tubes, 9 mg of active ingredient are first dissolved in 1 ml of acetone p.a. and then diluted to the desired concentration with acetone p.a. 250 μl of the solution are distributed homogeneously on the inner walls and the base of a 25 ml glass tube by turning and rocking on an orbital shaker (rocking rotation at 30 rpm for 2 h). With 900 ppm of active ingredient solution and internal surface area 44.7 cm^2, given homogeneous distribution, an area-based dose of 5 μg/cm^2 is achieved. After the solvent has evaporated off, the tubes are populated with 5-10 adult cat fleas (Ctenocephalides felis), sealed with a perforated plastic lid and incubated in a horizontal position at room temperature and ambient humidity. After 48 h, efficacy is determined. To this end, the tubes are stood upright and the fleas are knocked to the base of the tube. Fleas which remain motionless at the base or move in an uncoordinated manner are considered to be dead or moribund. […] 100% efficacy means that all the fleas were dead or moribund. 0% efficacy means that no fleas were harmed.

Tetranychus urticae = Tetranychus urticae spray test, OP-resistant; format: in vivo; conditions: application rate 100 g/ha, spray on bean leaf discs, after 6 days
Protocol: Tetranychus urticae—Spray Test, OP-Resistant
(§1) Solvent: 78.0 parts by weight of acetone • • 1.5 parts by weight of dimethylformamide
(§2) Emulsifier: alkylaryl polyglycol ether
(§3) To produce a suitable active ingredient formulation, 1 part by weight of active ingredient is dissolved with the specified parts by weight of solvent and made up to the desired concentration with water containing an emulsifier concentration of 1000 ppm. To produce further test concentrations, the formulation is diluted with emulsifier-containing water.
Discs of bean leaves (Phaseolus vulgaris) infested with all stages of the greenhouse red spider mite (Tetranychus urticae) are sprayed with an active ingredient formulation of the desired concentration.
After 6 days, the efficacy in % is determined. 100% means that all the spider mites have been killed; 0% means that no spider mites have been killed.

Myzus persicae [3] = test: Myzus persicae spray test; format: in vivo; conditions: foliar, 120 h, spray on Chinese cabbage leaf discs, after 5 days, read-out: efficacy (aphids killed); for pest or weed control at 100 g/ha: application rate 100 g/ha; for pest or weed control at 20 g/ha: application rate 20 g/ha
Protocol: Myzus persicae—Spray Test Solvent: 78 parts by weight of acetone • • 1.5 parts by weight of dimethylformamide Emulsifier: alkylaryl polyglycol ether To produce a suitable active ingredient formulation, 1 part by weight of active ingredient is dissolved with the specified parts by weight of solvent and made up to the desired concentration with water containing an emulsifier concentration of 1000 ppm. To produce further test concentrations, the formulation is diluted with emulsifier-containing water. Discs of Chinese cabbage leaves (Brassica pekinensis) infested by all stages of the green peach aphid (Myzus persicae) are sprayed with an active ingredient formulation of the desired concentration. After 5 days, the efficacy in % is determined. 100% means that all the aphids have been killed; 0% means that no aphids have been killed.

Myzus persicae [4] = test: Myzus persicae oral test; format: in vivo; conditions: 120 h, application rate 4 ppm, after 5 days, read-out: efficacy (aphids killed)
Protocol: Myzus persicae—Oral Test Solvent: 100 parts by weight of acetone To produce a suitable active ingredient formulation, 1 part by weight of active ingredient is dissolved with the stated parts by weight of solvent and made up to the desired concentration with water. 50 μl of the active ingredient preparation are transferred into microtitre plates and made up to a final volume of 200 μl with 150 μl of IPL41 insect medium (33%+15% sugar). Subsequently, the plates are sealed with parafilm, which a mixed population of green peach aphids (Myzus persicae) within a second microtitre plate is able to puncture and imbibe the solution. After 5 days, the efficacy in % is determined. 100% means that all the aphids have been killed; 0% means that no aphids have been killed.

Lucilia cuprina = Lucilia cuprina test; format: in vivo; conditions: application rate 100 ppm, L1 larvae, after 2 days
Protocol: Lucilia cuprina Test Solvent: dimethyl sulfoxide To produce a suitable active ingredient formulation, 10 mg of active ingredient are mixed with 0.5 ml of dimethyl sulfoxide, and the concentrate is diluted with water to the desired concentration. About 20 L1 larvae of the Australian sheep blowfly (Lucilia cuprina) are transferred into a test vessel containing minced horsemeat and the active ingredient formulation of the desired concentration. After 2 days, the kill in % is determined. 100% means that all the larvae have been killed; 0% means that no larvae have been killed.

Ctenocephalides felis [5] = test: Ctenocephalides felis oral test; format: in vivo; conditions: application rate 100 ppm in citrated cattle blood, after 2 days, adult cat fleas
Protocol: Ctenocephalides felis—Oral Test Solvent: dimethyl sulfoxide To produce a suitable active ingredient formulation, 10 mg of active ingredient are mixed with 0.5 ml of dimethyl sulfoxide. Dilution with citrated cattle blood gives the desired concentration. About 20 unfed adult cat fleas (Cienocephalides felis) are placed into a chamber which is closed at the top and bottom with gauze. A metal cylinder whose bottom end is closed with parafilm is placed onto the chamber. The cylinder contains the blood/active ingredient formulation, which can be imbibed by the fleas through the parafilm membrane. After 2 days, the kill in % is determined. 100% means that all of the fleas have been killed; 0% means that none of the fleas have been killed.

Musca domestica = Musca domestica test; format: in vivo; conditions: application rate 100 ppm, adult houseflies, after 2 days
Protocol: Musca domestica Test Solvent: dimethyl sulfoxide To produce a suitable active ingredient formulation, 10 mg of active ingredient are mixed with 0.5 ml of dimethyl sulfoxide, and the concentrate is diluted with water to the desired concentration. Vessels containing a sponge treated with sugar solution and the active ingredient formulation of the desired concentration are populated with 10 adult houseflies (Musca domestica). After 2 days, the kill in % is determined. 100% means that all of the flies have been killed; 0% means that none of the flies have been killed.

Boophilus microplus = Boophilus microplus injection test; format: in vivo; conditions: application rate 20 μg/animal, injection into engorged adult female cattle ticks, after 7 days
Protocol: Boophilus microplus—Injection Test Solvent: dimethyl sulfoxide To produce a suitable active ingredient formulation, 10 mg of active ingredient are mixed with 0.5 ml of solvent and the concentrate is diluted to the desired concentration with solvent. 1 μl of the active ingredient solution is injected into the abdomen of 5 engorged adult female cattle ticks (Boophilus microplus). The animals are transferred into dishes and kept in a climate-controlled room. Efficacy is assessed after 7 days by laying of fertile eggs. Eggs which are not visibly fertile are stored in a climate-controlled cabinet until the larvae hatch after about 42 days. An efficacy of 100% means that none of the ticks has laid any fertile eggs; 0% means that all the eggs are fertile.

Spodoptera frugiperda = Spodoptera frugiperda spray test; format: in vivo; conditions: application rate 100 g/ha, spray on maize leaf discs, after 7 days
Protocol: Spodoptera frugiperda—Spray Test Solvent: 78.0 parts by weight of acetone • • 1.5 parts by weight of dimethylformamide Emulsifier: alkylaryl polyglycol ether To produce a suitable active ingredient formulation, 1 part by weight of active ingredient is dissolved with the specified parts by weight of solvent and made up to the desired concentration with water containing an emulsifier concentration of 1000 ppm. To produce further test concentrations, the formulation is diluted with emulsifier-containing water. Leaf discs of maize (Zea mays) are sprayed with an active ingredient formulation of the desired concentration and, after drying, populated with caterpillars of the armyworm (Spodoptera frugiperda). After 7 days, the efficacy in % is determined. 100% means that all the caterpillars have been killed; 0% means that no caterpillar has been killed.

Phaedon cochleariae = Phaedon cochleariae spray test; format: in vivo; conditions: application rate 100 g/ha, spray on Chinese cabbage leaf discs, after 7 days
Protocol: Phaedon cochleariae—Spray Test
as §1, §2, §3
Discs of Chinese cabbage leaves (Brassica pekinensis) are sprayed with an active ingredient formulation of the desired concentration and, after drying, populated with larvae of the mustard beetle (Phaedon cochleariae).
After 7 days, the efficacy in % is determined. 100% means that all the beetle larvae have been killed; 0% means that no beetle larvae have been killed.

Meloidogyne incognita = Meloidogyne incognita test; format: in vivo; conditions: application rate 20 ppm, lettuce, after 14 days
Protocol: Meloidogyne incognita Test Solvent: 125.0 parts by weight of acetone To produce a suitable active ingredient formulation, 1 part by weight of active ingredient is mixed with the stated amount of solvent and the concentrate is diluted to the desired concentration with water. Vessels are filled with sand, active ingredient solution, an egg/larvae suspension of the southern root-knot nematode (Meloidogyne incognita) and lettuce seeds. The lettuce seeds germinate and the plants develop. The galls develop on the roots. After 14 days, the nematicidal efficacy in % is determined by the formation of galls. 100% means that no galls were found; 0% means that the number of galls on the treated plants corresponds to the untreated control.

SMILES | chromatographic logP [1] | efficacy (fleas dead or moribund) (Ctenocephalides felis [2]) [%] | efficacy (spider mites killed) (Tetranychus urticae) [%] | pest or weed control at 100 g/ha (Myzus persicae [3]) [%] | pest or weed control at 4 ppm (Myzus persicae [4]) [%] | efficacy (kill) (Lucilia cuprina) [%] | efficacy (kill) (Ctenocephalides felis [5]) [%] | pest or weed control at 20 g/ha (Myzus persicae [3]) [%] | efficacy (kill) (Musca domestica) [%] | efficacy (laying of fertile eggs) (Boophilus microplus) [%] | efficacy (caterpillars killed) (Spodoptera frugiperda) [%] | efficacy (beetle larvae killed) (Phaedon cochleariae) [%] | nematicidal efficacy (formation of galls) (Meloidogyne incognita) [%]
CCSc1c(-c2nc3cc(C(F)(F)F)ncc3n2C)nc2n1CCCC2 [Example I-001, 2-(3-Ethylsulfanyl-5,6,7,8-tetrahydroimidazo[1,2-a]pyridin-2-yl)-3-methyl-6-(trifluoromethyl)imidazo[4,5-c]pyridine] | 2.37 | 100 |  |  |  |  |  |  |  |  |  |  | 
CCS(=O)(=O)c1c(-c2nc3cc(C(F)(F)F)ncc3n2C)nc2n1CC(C(F)(F)F)CC2 (stereo not shown) [Example I-003] |  |  | 90 | 100 | 100 |  |  |  |  |  |  |  | 
CCS(=O)(=O)c1c(-c2nc3cc(C(F)(F)F)ncc3n2C)nc2n1CCC(C)C2 (stereo not shown) [Example I-007] |  | 100 |  | 100 | 100 | 100 | 80 | 100 | 100 |  |  |  | 
CCS(=O)(=O)c1c(-c2nc3cc(C(F)(F)F)ncc3n2C)nc2n1CC(C)CC2 (stereo not shown) [Example I-009] |  |  |  | 100 | 100 | 100 | 80 | 90 | 100 | 100 |  |  | 
CCS(=O)(=O)c1c(-c2nc3cc(C(F)(F)F)ncc3n2C)nc2n1CCC(C(F)(F)F)C2 (stereo not shown) [Example I-010] |  |  |  |  | 100 |  |  | 90 |  |  | 83 |  | 
CCS(=O)(=O)c1c(-c2nc3cc(C(F)(F)F)cnc3n2C)nc2n1CCCC2 [Example I-011] |  |  |  | 90 | 100 | 100 | 95 | 90 | 80 |  |  |  | 
CCS(=O)(=O)c1c(-c2nc3cc(C(F)(F)C(F)(F)F)ncc3n2C)nc2n1CCCC2 [Example I-012] |  |  |  | 90 | 100 | 100 | 100 | 90 |  |  | 83 | 100 | 90
Cn1c(-c2nc3n(c2S(C)(=O)=O)CCCC3)nc2cc(C(F)(F)C(F)(F)F)ncc21 [Example I-013] |  |  |  | 90 | 100 | 100 | 95 |  | 80 |  |  | 83 | 
CCS(=O)(=O)c1c(-c2nc3cc(C(F)(F)F)ccc3n2C)nc2n1CCCC2 [Example I-015] |  |  |  | 90 | 100 | 100 |  | 90 | 90 |  |  | 83 | 
CCS(=O)(=O)c1c(-c2nc3cc(C(F)(F)C(F)(F)F)cnc3n2C)nc2n1CCCC2 [Example I-017] |  |  |  | 100 | 100 |  |  | 90 |  |  | 100 |  | 
